Columns and labels:
Assay type in all cases: biochemical
[1] = target: T1, PDX3 (At5g49970) (Arabidopsis thaliana, UniProt Q9LTX3); experiment: coupled spectrophotometric NADHX repair assay, […] and […] nm; conditions: epimerization by NNRE domain; coupled to NNRD; 1 mM ATP, 2 mM MgCl2, 5 mM KCl, Tris-HCl pH 8, 25 °C; racemic NADHX
T1 construct: gene PPOX1; cDNA without predicted transit peptide (residues 2 to 73 removed), N-terminal His6 tag, pET-28a, E. coli BL21(DE3); NNRE and POX domains both present
T1 sequence (Q9LTX3 74-530): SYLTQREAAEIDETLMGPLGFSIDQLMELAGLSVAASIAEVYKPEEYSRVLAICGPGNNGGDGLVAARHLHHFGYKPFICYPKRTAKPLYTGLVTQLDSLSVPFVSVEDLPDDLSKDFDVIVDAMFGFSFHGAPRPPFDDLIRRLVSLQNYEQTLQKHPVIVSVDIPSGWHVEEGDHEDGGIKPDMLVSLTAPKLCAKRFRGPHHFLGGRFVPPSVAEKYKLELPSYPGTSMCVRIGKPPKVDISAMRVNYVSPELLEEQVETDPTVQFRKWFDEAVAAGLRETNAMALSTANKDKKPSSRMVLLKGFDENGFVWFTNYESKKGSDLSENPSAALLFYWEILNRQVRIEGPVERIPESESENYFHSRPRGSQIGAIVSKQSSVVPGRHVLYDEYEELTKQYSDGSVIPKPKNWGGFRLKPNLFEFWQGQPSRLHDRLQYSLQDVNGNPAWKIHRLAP

[2] = target: T2, NNRD (dehydratase) (Arabidopsis thaliana, UniProt Q94AF2); experiment: spectrophotometric dehydratase assay, […] and […] nm; conditions: 1 mM ATP, 2 mM MgCl2, 5 mM KCl, Tris-HCl pH 8, 25 °C; racemic NADHX
T2 construct: gene At5g19150; no transit peptide (residues 2 to 45 removed), C-terminal His6 tag, pET-24b, E. coli BL21(DE3); locus printed as At5g12150, probably a misprint of At5g19150
T2 sequence (Q94AF2 46-365): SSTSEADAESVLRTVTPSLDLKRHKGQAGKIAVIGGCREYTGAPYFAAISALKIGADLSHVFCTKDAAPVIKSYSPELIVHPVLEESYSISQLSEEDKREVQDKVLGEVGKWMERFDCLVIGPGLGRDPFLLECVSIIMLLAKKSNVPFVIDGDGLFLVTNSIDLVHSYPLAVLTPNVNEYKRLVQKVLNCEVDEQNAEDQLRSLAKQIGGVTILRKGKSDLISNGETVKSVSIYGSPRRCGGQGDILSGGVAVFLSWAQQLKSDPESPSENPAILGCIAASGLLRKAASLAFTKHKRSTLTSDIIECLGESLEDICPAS

[3] = target: T3, Arabidopsis NR2 (NIA2, At1g37130) (Arabidopsis thaliana, UniProt P11035); experiment: nitrate reductase activity with APADH, absorbance at […] nm; conditions: electron donor replacing NADH, 0.1 mM; 10 mM potassium nitrate, 0.005 mM FAD, phosphate pH 7.5, 25 °C
T3 construct: commercial recombinant enzyme expressed and purified from Pichia pastoris
T3 sequence (P11035 1-917): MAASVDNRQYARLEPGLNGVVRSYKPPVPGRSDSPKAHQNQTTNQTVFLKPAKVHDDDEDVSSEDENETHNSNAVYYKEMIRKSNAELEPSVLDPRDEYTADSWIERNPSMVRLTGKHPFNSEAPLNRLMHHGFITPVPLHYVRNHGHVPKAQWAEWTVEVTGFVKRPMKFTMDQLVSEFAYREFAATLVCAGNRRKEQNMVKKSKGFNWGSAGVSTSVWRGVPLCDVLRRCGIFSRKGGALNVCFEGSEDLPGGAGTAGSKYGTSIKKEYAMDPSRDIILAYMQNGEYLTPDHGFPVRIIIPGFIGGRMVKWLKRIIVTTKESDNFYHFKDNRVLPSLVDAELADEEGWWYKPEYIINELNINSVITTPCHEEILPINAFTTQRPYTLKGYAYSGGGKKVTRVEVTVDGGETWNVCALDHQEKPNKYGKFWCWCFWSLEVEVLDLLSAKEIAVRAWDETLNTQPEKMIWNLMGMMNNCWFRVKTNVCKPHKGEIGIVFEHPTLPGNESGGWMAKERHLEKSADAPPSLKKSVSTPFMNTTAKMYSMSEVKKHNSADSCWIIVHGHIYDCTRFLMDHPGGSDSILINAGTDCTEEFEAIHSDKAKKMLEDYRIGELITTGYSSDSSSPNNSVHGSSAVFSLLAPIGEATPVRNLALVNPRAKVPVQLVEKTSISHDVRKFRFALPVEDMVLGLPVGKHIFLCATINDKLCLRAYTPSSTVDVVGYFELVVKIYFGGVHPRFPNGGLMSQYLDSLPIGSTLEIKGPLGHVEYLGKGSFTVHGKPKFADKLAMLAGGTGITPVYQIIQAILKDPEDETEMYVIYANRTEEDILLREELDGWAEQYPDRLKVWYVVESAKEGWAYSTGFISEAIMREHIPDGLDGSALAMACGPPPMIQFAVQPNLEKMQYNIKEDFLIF

NC(=O)C1=CN([C@@H]2O[C@H](COP(=O)(O)OP(=O)(O)OC[C@H]3O[C@@H](n4cnc5c(N)ncnc54)[C@H](O)[C@@H]3O)[C@@H](O)[C@H]2O)[C@H](O)CC1 (mixture of isomers) [(R)-NADHX]
coupled spectrophotometric NADHX repair assay, 290 and 340 nm [1]: leads to epimerization of (R)-NADHX in the racemate to (S)-NADHX by the NNRE domain

NC(=O)C1=CN([C@@H]2O[C@H](COP(=O)(O)OP(=O)(O)OC[C@H]3O[C@@H](n4cnc5c(N)ncnc54)[C@H](O)[C@@H]3O)[C@@H](O)[C@H]2O)[C@@H](O)CC1 (mixture of isomers) [(S)-NADHX]
spectrophotometric dehydratase assay, 290 and 340 nm [2]: (S)-NADHX within a racemic mixture of NADHX is dehydrated to NADH by NNRD

CC(=O)C1=CN([C@@H]2O[C@H](COP(=O)(O)OP(=O)(O)OC[C@H]3O[C@@H](n4cnc5c(N)ncnc54)[C@H](O)[C@@H]3O)[C@@H](O)[C@H]2O)C=CC1 [APADH]
nitrate reductase activity with APADH, absorbance at 363 nm [3]: the latter was replaced with its analog, 3-acetylpyridine-adenine dinucleotide (APADH
